Literature values as cited in patent publication US8759333B2, “Di-azetidinyl diamide as monoacylglycerol lipase inhibitors” (Janssen Pharmaceutica, NV, priority 2010, dated 2014).

What was measured:
tail flick = conditions: intravenous delivery (Mechoulam et al.); cited from earlier work
hot plate = conditions: cited from earlier work

Q: With `CCCCC/C=C\C/C=C\C/C=C\C/C=C\CCCC(=O)OC(CO)CO` [2-AG, 2-arachidinoylglycerol] as the molecule, how does the “analgesia in tail flick assay” value (tail flick) read?
A: produces analgesia

Q: And the “analgesia in hot plate assay, given alone” value (hot plate; 2-AG given alone (Ben-Shabat et al.))?
A: not analgesic

Q: What about the “analgesia in hot plate assay” value (hot plate; intravenous delivery (Lichtman et al.)) of the same molecule?
A: produces analgesia
